Experiments:
KRAS (WT)::SOS1 = biological target: T1, KRAS (WT)::SOS1 (Homo sapiens, UniProt P01116, C118S); test: KRAS::SOS1 AlphaScreen binding assay, KRAS WT
T1 construct: KRAS (WT) 1-169, N-terminal 6His-tag for purification, cleaved off; 6His-tag (N, cleaved yes); TEV cleavage site; made in house
Excerpt: This assay can be used to examine the potency with which compounds according to the invention binding to (mutated) KRAS inhibit the protein-protein interaction between SOS1 and (mutated) KRAS e.g., KRAS WT, KRAS G12C, KRAS G12D, KRAS G12V, KRAS G13D. […] Low IC50 values in this assay setting are indicative of strong inhibition of protein-protein interaction between SOS1 and KRAS:
These assays measure the inhibitory effect of compounds on KRAS mutant protein-protein interactions using the Alpha Screen technology by Perkin Elmer
The following (mutant) enzyme forms of KRAS and interacting proteins are used in these assays at the given concentrations: • KRAS (G12D) 1-169, N-terminal 6His-tag, C-terminal avi-tag (Xtal BioStructures, Inc.); final assay concentration 10 nM and SOS1 564-1049, N-terminal 229 GST-tag, TEV cleavage site (Viva Biotech Ltd); final assay concentration 5 nM; • KRAS (G12C) 1-169, N-terminal 6His-tag for purification, cleaved off, C-terminal avi-tag, biotinylated, mutations: C51S, C80L, C118S (in house); final assay concentration 7.5 nM and SOS1 564-1049, N-terminal 229 GST-tag, TEV cleavage site (Viva Biotech Ltd); final assay concentration 5 nM; • KRAS (G12V) 1-169, N-terminal 6His-tag for purification, cleaved off, C-terminal avi-tag, biotinylated, TEV cleavage site, mutation: C118S, GDP loaded (in house); final assay concentration 10 nM and SOS1 564-1049, N-terminal 229 GST-tag, TEV cleavage site (Viva Biotech Ltd); final assay concentration 10 nM; • KRAS (G13D) 1-169, N-terminal 6His-tag for purification, cleaved off, C-terminal avi-tag, biotinylated, TEV cleavage site, mutation: C118S, GDP loaded (in house); final assay concentration 10 nM and SOS1 564-1049, N-terminal 229 GST-tag, TEV cleavage site (Viva Biotech Ltd); final assay concentration 10 nM; • KRAS (WT) 1-169, N-terminal 6His-tag for purification, cleaved off, C-terminal avi-tag, biotinylated, TEV cleavage site, mutation: C118S, GDP loaded (in house); final assay concentration 10 nM and SOS1 564-1049, N-terminal 229 GST-tag, TEV cleavage site (Viva Biotech Ltd); final assay concentration 10 nM.
Test compounds dissolved in DMSO are dispensed onto assay plates (Proxiplate 384 PLUS, white, PerkinElmer; 6008289) using an Access Labcyte Workstation with the Labcyte Echo 55×. For the chosen highest assay concentration of 100 μM, 150 nL of compound solution are transferred from a 10 mM DMSO compound stock solution. A series of eleven fivefold dilutions per compound are transferred to the assay plate, compound dilutions are tested in duplicates. DMSO are added as backfill to a total volume of 150 nL.
The assays run on a fully automated robotic system in a darkened room below 100 Lux. To 150 nl of compound dilution 10 μl of a mix including KRAS mutant protein, SOS1 (final assay concentrations see above) and GDP nucleotide (Sigma G7127; final assay concentration 10 μM) in assay buffer (1×PBS, 0.1% BSA, 0.05% Tween 20) are added into columns 1-24.
After 30 minutes incubation time 5 μl of Alpha Screen bead mix in assay buffer are added into columns 1-23. Bead mix consists of AlphaLISA Glutathione Acceptor Beads (PerkinElmer, Cat No AL109) and AlphaScreen Streptavidin Donor Beads (PerkinElmer Cat No 6760002) in assay buffer at a final assay concentration of 10 μg/ml each.
Plates are kept at room temperature in a darkened incubator. After an additional 60 minutes incubation time the signal is measured in a PerkinElmer Envision HTS Multilabel Reader using the AlphaScreen specs from PerkinElmer.
Each plate contains up to 16 wells of a negative control depending on the dilution procedure (platewise or serial) (DMSO instead of test compound; with KRAS mutant::SOS1 GDP mix and bead mix; column 23) and 16wells of a positive control (DMSO instead of test compound; with KRAS mutant::SOS1 GDP mix w/o bead mix; column 24).
As internal control known inhibitors of KRAS mutant::SOS1 interaction can be measured on each compound plate. […]

[1] = Metabolic (microsomal) stability assay, human liver microsomes (HLM); format: in vitro ADME; details: 1 μM, predicted clearance as percent of liver blood flow
Procedure: The metabolic degradation of the test compound is assayed at 37° C. with pooled liver microsomes (mouse (MLM), rat (RLM) or human (HLM)). The final incubation volume of 48 μL per time point contains TRIS buffer (pH 7.5; 0.1 M), magnesium chloride (6.5 mM), microsomal protein (0.5 mg/mL for mouse/rat, 1 mg/mL for human specimens) and the test compound at a final concentration of 1 μM. Following a short preincubation period at 37° C., the reactions are initiated by addition of 12 μL beta-nicotinamide adenine dinucleotide phosphate, reduced form (NADPH, 10 mM) and terminated by transferring an aliquot into solvent after different time points (0, 5, 15, 30, 60 min). Additionally, the NADPH-independent degradation is monitored in incubations without NADPH, terminated at the last time point by addition of acetonitrile. The quenched incubations are pelleted by centrifugation (4,000 rpm, 15 min). An aliquot of the supernatant is assayed by LC-MS/MS to quantify the concentration of parent compound in the individual samples.
In vitro intrinsic clearance (CLint, in vitro) is calculated from the time course of the disappearance of the test drug during the microsomal incubation. Each plot is fitted to the first-order elimination rate constant as C(t)=C0*exp(−ke*t), where C(t) and C0 are the concentration of unchanged test drug at incubation time t and that at preincubation and ke is the disappearance rate constant of the unchanged drug. Subsequently, CLint, in vitro (μL min^−1·amount protein) values are converted to predicted CLint, in vitro (mL min^−1·kg^−1) from incubation parameters according to the equation CLint, in vitro=CLint, in vitro×(incubation volume (ml)/amount protein (mg))×(amount protein (mg)/g liver tissue)×(liver weight/body wt.). For better across species comparison the predicted clearance is expressed as percent of the liver blood flow [% QH](mL min^−1·kg^−1) in the individual species. In general, high stability (corresponding to low % QH) of the compounds across species is desired.

T1 sequence (P01116 1-169 isoform P01116-2 C118S): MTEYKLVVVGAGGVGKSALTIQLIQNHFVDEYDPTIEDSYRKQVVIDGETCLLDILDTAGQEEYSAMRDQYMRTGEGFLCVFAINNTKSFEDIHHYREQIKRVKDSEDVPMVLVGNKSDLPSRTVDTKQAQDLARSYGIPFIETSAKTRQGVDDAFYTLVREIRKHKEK

IC50 (KRAS (WT)::SOS1) | HLM QH [%] [1] | SMILES
2 nM | 37% | CO[C@@H]1C[C@@H]([C@H](C)Oc2cc(O[C@@H]3CNC3(C)C)nc(-c3noc4c3CCC[C@@]43CCCc4sc(N)c(C#N)c43)n2)N(C)C1 [II-30]
2 nM | 37% | C[C@H](Oc1cc(O[C@@H]2CNC2(C)C)nc(-c2noc3c2CCC[C@@]32CCCc3sc(N)c(C#N)c32)n1)[C@@H]1C[C@@H](F)CN1C [II-31]
